Assay results from patent US11472808B2, “Substituted pyrrolo[1,2-c]pyrimidines as hepatitis B antiviral agents” (Enanta Pharmaceuticals, Inc., priority 2019, dated 2022).
pEC50: −log10 of the molar value.

Legend:
[1] = Compound toxicity, ATPLite total ATP levels; assay type: cell-based; conditions: human, HepG2 cells; concentration reducing total ATP levels by 50% relative to no drug controls; ATPLite three days after compound addition
Experimental: Compound toxicity is evaluated by seeding cells at 15,000 cells/well and treating with compound as described above.

HBV = assay: HepAD38 anti-HBV assay: reduction of viral product accumulation (virion DNA qPCR, HBsAg/HBeAg ELISA); assay type: cell-based; conditions: Hepatitis B virus, 120 h; HepAD38 cells; concentration reducing viral product accumulation by 50% relative to no drug controls; harvest five days after compound addition; read-out: HepAD38 EC50
Outline: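 Tetracycline-free HepAD38 cells treated 5 days with compound (1:200 DMSO dilution), or 8 days with media and compound refreshed on d2 and d5. Virion DNA quantified by qPCR; HBsAg or HBeAg by ELISA. EC50 is the concentration reducing viral product accumulation 50% versus no-drug controls.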

SMILES | CC50 at 3 days [1] [µM] | pEC50 (HBV)
O=S(=O)(N[C@H]1CC2=C(c3ccn(C(F)F)n3)[C@H](c3ccc(F)cc3Cl)N=C(c3nccs3)N2C1)[C@H]1CC[C@H](O)CC1 [Example 98] | > 25 | > 7.00
O=S(=O)(N[C@H]1CC2=C(c3ccn(C(F)F)n3)[C@H](c3ccc(F)cc3Cl)N=C(c3nccs3)N2C1)[C@H]1CC[C@@H](O)CC1 [Example 99] | > 25 | > 7.00
O=S(=O)(N[C@H]1CC2=C(c3ccn(C(F)F)n3)[C@H](c3ccc(F)cc3Cl)N=C(c3nccs3)N2C1)[C@H]1CC[C@](O)(CO)CC1 [Example 100] | > 25 | > 7.00
N#CCCCS(=O)(=O)N[C@H]1CC2=C(c3ccn(C(F)F)n3)[C@H](c3ccc(F)cc3Cl)N=C(c3nccs3)N2C1 [Example 135] | > 25 | > 7.00
N#CCC1(O)CC2=C(c3ccn(C(F)F)n3)[C@H](c3ccc(F)cc3Cl)N=C(c3nccs3)N2C1 (stereo partly shown) [Example 140] | > 25 | > 7.00
O=S1(=O)CCN(S(=O)(=O)N[C@H]2CC3=C(c4ccn(C(F)F)n4)[C@H](c4ccc(F)cc4Cl)N=C(c4nccs4)N3C2)CC1 [Example 150] | > 25 | > 7.00
CS(=O)(=O)N1CCN(S(=O)(=O)N[C@H]2CC3=C(c4ccn(C(F)F)n4)[C@H](c4ccc(F)cc4Cl)N=C(c4nccs4)N3C2)CC1 [Example 151] | > 25 | > 7.00
O=S(=O)(N[C@H]1CC2=C(c3ccn(C(F)F)n3)[C@H](c3ccc(F)cc3Cl)N=C(c3nccs3)N2C1)N[C@H]1CC[C@@H](O)CC1 [Example 154] | > 25 | > 7.00
O=S(=O)(N[C@H]1CC2=C(c3ccn(C(F)F)n3)[C@H](c3ccc(F)cc3Cl)N=C(c3nccs3)N2C1)N[C@H]1CC[C@H](O)CC1 [Example 155] | > 25 | > 7.00
O=S(=O)(N[C@H]1CC2=C(c3ccn(C(F)F)n3)[C@H](c3ccc(F)cc3Cl)N=C(c3nccs3)N2C1)N[C@H]1C[C@@H](O)C1 [Example 156] | > 25 | > 7.00
O=S(=O)(N[C@H]1CC2=C(c3ccn(C(F)F)n3)[C@H](c3ccc(F)cc3Cl)N=C(c3nccs3)N2C1)N[C@H]1C[C@H](O)C1 [Example 157] | > 25 | > 7.00
O=C(N[C@H]1CC2=C(c3ccn(C(F)F)n3)[C@H](c3ccc(F)cc3Cl)N=C(c3nccs3)N2C1)c1ccccc1 [Example 213] | 10 to 25 | > 7.00
O=C(N[C@H]1CC2=C(c3ccn(C(F)F)n3)[C@H](c3ccc(F)cc3Cl)N=C(c3nccs3)N2C1)c1ccccn1 [Example 214] | 10 to 25 | > 7.00
O=C(N[C@H]1CC2=C(c3ccn(C(F)F)n3)[C@H](c3ccc(F)cc3Cl)N=C(c3nccs3)N2C1)c1nccs1 [Example 235] | > 25 | > 7.00
CC1(O)CCN(S(=O)(=O)N[C@H]2CC3=C(c4ccn(C(F)F)n4)[C@H](c4ccc(F)cc4Cl)N=C(c4nccs4)N3C2)CC1 [Example 256] | > 25 | > 7.00
O=S(=O)(N[C@H]1CC2=C(c3ccn(C(F)F)n3)[C@H](c3ccc(F)cc3Cl)N=C(c3nccs3)N2C1)N1CCC(O)(c2ccccc2)CC1 [Example 257] | 10 to 25 | > 7.00
O=S(=O)(N[C@H]1CC2=C(c3ccn(C(F)F)n3)[C@H](c3ccc(F)cc3Cl)N=C(c3nccs3)N2C1)N1CCC(O)(c2ccncc2)CC1 [Example 259] | > 25 | > 7.00
O=S(=O)(N[C@H]1CC2=C(c3ccn(C(F)F)n3)[C@H](c3ccc(F)cc3Cl)N=C(c3nccs3)N2C1)N1CCC(O)(c2nccs2)CC1 [Example 260] | > 25 | > 7.00
O=S(=O)(N[C@H]1CC2=C(c3ccn(C(F)F)n3)[C@H](c3ccc(F)cc3Cl)N=C(c3nccs3)N2C1)N1CCC(O)(c2ncco2)CC1 [Example 261] | > 25 | > 7.00
O=S(=O)(N[C@H]1CC2=C(c3ccn(C(F)F)n3)[C@H](c3ccc(F)cc3Cl)N=C(c3nccs3)N2C1)N1CCC(O)(c2cccnc2)CC1 [Example 264] | > 25 | > 7.00
O=S(=O)(N[C@H]1CC2=C(c3ccn(C(F)F)n3)[C@H](c3ccc(F)cc3Cl)N=C(c3nccs3)N2C1)N1CCC(O)(c2ccccn2)CC1 [Example 266] | > 25 | > 7.00
O=S(=O)(N[C@H]1CC2=C(c3ccn(C(F)F)n3)[C@H](c3ccc(F)cc3Cl)N=C(c3nccs3)N2C1)N1CCC(O)(C2CCCC2)CC1 [Example 267] | > 25 | > 7.00
O=S(=O)(N[C@H]1CC2=C(c3ccn(C(F)F)n3)[C@H](c3ccc(F)cc3Cl)N=C(c3nccs3)N2C1)N1CC(O)(c2ccccn2)C1 [Example 269] | > 25 | > 7.00
O=S(=O)(N[C@H]1CC2=C(c3ccn(C(F)F)n3)[C@H](c3ccc(F)cc3Cl)N=C(c3nccs3)N2C1)N1CCC(O)(C2CC2)CC1 [Example 270] | < 10 | > 7.00

SMILES | CC50 at 3 days [1] [µM] | pEC50 (HBV)
O=S(=O)(N[C@H]1CC2=C(c3ccn(C(F)F)n3)[C@H](c3ccc(F)cc3Cl)N=C(c3nccs3)N2C1)N1CCCC1 [Example 271] | 10 to 25 | > 7.00
O=S(=O)(N[C@H]1CC2=C(c3ccn(C(F)F)n3)[C@H](c3ccc(F)cc3Cl)N=C(c3nccs3)N2C1)N1CC2CC2C1 (stereo partly shown) [Example 273] | < 10 | > 7.00
O=S(=O)(N[C@H]1CC2=C(c3ccn(C(F)F)n3)[C@H](c3ccc(F)cc3Cl)N=C(c3nccs3)N2C1)N1C[C@@H](F)[C@@H](F)C1 [Example 274] | < 10 | > 7.00
O=S(=O)(N[C@H]1CC2=C(c3ccn(C(F)F)n3)[C@H](c3ccc(F)cc3Cl)N=C(c3nccs3)N2C1)N1C[C@H](F)[C@@H](F)C1 [Example 275] | 10 to 25 | > 7.00
O=S(=O)(N[C@H]1CC2=C(c3ccn(C(F)F)n3)[C@H](c3ccc(F)cc3Cl)N=C(c3nccs3)N2C1)N1CCC(F)(F)C1 [Example 276] | < 10 | > 7.00
O=S(=O)(CCCCO)N[C@H]1CC2=C(c3ccn(C(F)F)n3)[C@H](c3ccc(F)cc3Cl)N=C(c3nccs3)N2C1 [Example 280] | > 25 | > 7.00
CC1(O)CCN(S(=O)(=O)N[C@H]2CC3=C(c4ccn(C(F)F)n4)[C@H](c4ccc(F)cc4Cl)N=C(c4nccs4)N3C2)C1 (stereo partly shown) [Example 282] | > 25 | > 7.00
O=S(=O)(N[C@H]1CC2=C(c3ccn(C(F)F)n3)[C@H](c3ccc(F)cc3Cl)N=C(c3nccs3)N2C1)N1CCCCC12CCC2 [Example 285] | > 25 | > 7.00
O=S(=O)(N[C@H]1CC2=C(c3ccn(C(F)F)n3)[C@H](c3ccc(F)cc3Cl)N=C(c3nccs3)N2C1)N1CCC[C@@H]1C(F)(F)F [Example 287] | 10 to 25 | > 7.00
CC(C)(O)[C@@H]1CCCN1S(=O)(=O)N[C@H]1CC2=C(c3ccn(C(F)F)n3)[C@H](c3ccc(F)cc3Cl)N=C(c3nccs3)N2C1 [Example 289] | > 25 | > 7.00
CS(=O)(=O)NC1CCN(S(=O)(=O)N[C@H]2CC3=C(c4ccn(C(F)F)n4)[C@H](c4ccc(F)cc4Cl)N=C(c4nccs4)N3C2)C1 (stereo partly shown) [Example 290] | > 25 | > 7.00
O=C1CCCN1C1CCN(S(=O)(=O)N[C@H]2CC3=C(c4ccn(C(F)F)n4)[C@H](c4ccc(F)cc4Cl)N=C(c4nccs4)N3C2)CC1 [Example 293] | > 25 | > 7.00
O=C1NCCN1C1CCN(S(=O)(=O)N[C@H]2CC3=C(c4ccn(C(F)F)n4)[C@H](c4ccc(F)cc4Cl)N=C(c4nccs4)N3C2)CC1 [Example 294] | > 25 | > 7.00
O=S(=O)(N[C@H]1CC2=C(c3ccn(C(F)F)n3)[C@H](c3ccc(F)cc3Cl)N=C(c3nccs3)N2C1)N1CCCC[C@@H]1C(F)(F)F [Example 301] | > 25 | > 7.00
O=C1OCCN1C1CCN(S(=O)(=O)N[C@H]2CC3=C(c4ccn(C(F)F)n4)[C@H](c4ccc(F)cc4Cl)N=C(c4nccs4)N3C2)CC1 [Example 302] | > 25 | > 7.00
O=S(=O)(N[C@H]1CC2=C(c3ccn(C(F)F)n3)[C@H](c3ccc(F)cc3Cl)N=C(c3nccs3)N2C1)N1CCC(O)(c2ncccn2)CC1 [Example 303] | > 25 | > 7.00
Cn1ccc(C2(O)CCN(S(=O)(=O)N[C@H]3CC4=C(c5ccn(C(F)F)n5)[C@H](c5ccc(F)cc5Cl)N=C(c5nccs5)N4C3)CC2)n1 [Example 304] | > 25 | > 7.00
O=S(=O)(NCCc1ccccn1)N[C@H]1CC2=C(c3ccn(C(F)F)n3)[C@H](c3ccc(F)cc3Cl)N=C(c3nccs3)N2C1 [Example 309] | > 25 | > 7.00
CS(=O)(=O)c1ccc(S(=O)(=O)N[C@H]2CC3=C(c4ccn(C(F)F)n4)[C@H](c4ccc(F)cc4Cl)N=C(c4nccs4)N3C2)cc1 [Example 323] | 10 to 25 | > 7.00
O=S(=O)(N[C@H]1CC2=C(c3ccn(C(F)F)n3)[C@H](c3ccc(F)cc3Cl)N=C(c3nccs3)N2C1)C1CCC1 [Example 324] | 10 to 25 | > 7.00
O=Cc1ccc(S(=O)(=O)N[C@H]2CC3=C(c4ccn(C(F)F)n4)[C@H](c4ccc(F)cc4Cl)N=C(c4nccs4)N3C2)cc1 [Example 332] | > 25 | > 7.00
O=S(=O)(N[C@H]1CC2=C(c3ccn(C(F)F)n3)[C@H](c3ccc(F)cc3Cl)N=C(c3nccs3)N2C1)c1ccc(C(O)c2ccccn2)cc1 (stereo partly shown) [Example 334] | < 10 | > 7.00
CS(=O)(=O)CS(=O)(=O)N[C@H]1CC2=C(c3ccn(C(F)F)n3)[C@H](c3ccc(F)cc3Cl)N=C(c3nccs3)N2C1 [Example 335] | > 25 | > 7.00
